From patent US20100267561A1, “HERBICIDAL PYRIDAZINONE DERIVATIVES” (priority 2007, published 2010)
Read-outs that look alike come from different tables or passages of the source.

Assays:
Assay in all cases: Test B flooded paddy test plant response
Type in all cases: in vivo
[1] = tested on: barnyardgrass (Echinochloa crus-galli)
Summary of the method: (§1)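 Rice, umbrella sedge, ducksalad and barnyardgrass at 2-leaf stage; pots flooded to 3 cm, compounds applied into paddy water, depth held throughout. Greenhouse 13 to 15 days, then visual rating vs untreated controls on 0–100 scale (0 no effect, 100 complete control); dash means no test result.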

[2] = tested on: ducksalad (Heteranthera limosa)
Summary of the method: as §1

[3] = tested on: umbrella sedge (Cyperus difformis)
Summary of the method: as §1

[4] = Flood (flooded paddy test), 62 g ai/ha, scale 0 to 100, 0 no effect, 100 complete control
[5] = Flood (flooded paddy test), 125 g ai/ha, scale 0 to 100, 0 no effect, 100 complete control
[6] = Flood (flooded paddy test), 250 g ai/ha, scale 0 to 100, 0 no effect, 100 complete control
[7] = Flood, 31 g ai/ha, scale 0 to 100
[8] = Echinochloa crus-galli, Flood (flooded paddy test), 250 g ai/ha, scale 0 to 100, 0 no effect, 100 complete control, read-out: Plant response rating, Barnyardgrass
[9] = Heteranthera limosa, Flood (flooded paddy test), 250 g ai/ha, scale 0 to 100, 0 no effect, 100 complete control, read-out: Plant response rating, Ducksalad
[10] = Cyperus difformis, Flood (flooded paddy test), 250 g ai/ha, scale 0 to 100, 0 no effect, 100 complete control, read-out: Plant response rating, Sedge, Umbrella
[11] = Flood, 62 g ai/ha, scale 0 to 100
[12] = Echinochloa crus-galli, Flood, 62 g ai/ha, scale 0 to 100, read-out: Plant response rating, Barnyardgrass
[13] = Heteranthera limosa, Flood, 62 g ai/ha, scale 0 to 100, read-out: Plant response rating, Ducksalad
[14] = Cyperus difformis, Flood, 62 g ai/ha, scale 0 to 100, read-out: Plant response rating, Sedge, Umbrella

CCc1cc(-c2ccc(Br)cc2)nn1-c1c(O)cnn(CC(F)(F)F)c1=O [Compound 73]
Plant response rating, Barnyardgrass [1, 4]: 0 | Plant response rating, Barnyardgrass [1, 5]: 0 | Plant response rating, Barnyardgrass [1, 6]: 0 | Plant response rating, Barnyardgrass [1, 7]: 0 | Plant response rating, Ducksalad [2, 4]: 0 | Plant response rating, Ducksalad [2, 5]: 0 | Plant response rating, Ducksalad [2, 6]: 0 | Plant response rating, Ducksalad [2, 7]: 0 | Plant response rating, Sedge, Umbrella [3, 4]: 0 | Plant response rating, Sedge, Umbrella [3, 5]: 0 | Plant response rating, Sedge, Umbrella [3, 6]: 0 | Plant response rating, Sedge, Umbrella [3, 7]: 0

CCCc1cc(-c2ccc(Cl)cc2)nn1-c1c(O)cnn(C)c1=O [Compound 76]
Plant response rating, Barnyardgrass [1, 4]: 0 | Plant response rating, Barnyardgrass [1, 6]: 0 | Plant response rating, Ducksalad [2, 4]: 0 | Plant response rating, Ducksalad [2, 6]: 0 | Plant response rating, Sedge, Umbrella [3, 4]: 0 | Plant response rating, Sedge, Umbrella [3, 6]: 0

Cc1cc(-c2ccc(Br)cc2)nn1-c1c(O)cnn(C2CCCCO2)c1=O (centres unmarked) [Compound 77, 4-[3-(4-bromophenyl)-5-methyl-1H-pyrazol-1-yl]-5-hydroxy-2-(tetrahydro-2H-pyran-2-yl)-3(2H)-pyridazinone]
pest or weed control at 62 g/ha ([1]; Echinochloa crus-galli, Flood (flooded paddy test), 62 g ai/ha, scale 0 to 100, 0 no effect, 100 complete control, read-out: Plant response rating, Barnyardgrass): 0% | pest or weed control at 125 g/ha ([1]; Echinochloa crus-galli, Flood (flooded paddy test), 125 g ai/ha, scale 0 to 100, 0 no effect, 100 complete control, read-out: Plant response rating, Barnyardgrass): 0% | pest or weed control at 250 g/ha [1, 8]: 0% | pest or weed control at 31 g/ha ([1]; Echinochloa crus-galli, Flood, 31 g ai/ha, scale 0 to 100, read-out: Plant response rating, Barnyardgrass): 0% | pest or weed control at 62 g/ha ([2]; Heteranthera limosa, Flood (flooded paddy test), 62 g ai/ha, scale 0 to 100, 0 no effect, 100 complete control, read-out: Plant response rating, Ducksalad): 0% | pest or weed control at 125 g/ha ([2]; Heteranthera limosa, Flood (flooded paddy test), 125 g ai/ha, scale 0 to 100, 0 no effect, 100 complete control, read-out: Plant response rating, Ducksalad): 0% | pest or weed control at 250 g/ha [2, 9]: 0% | pest or weed control at 31 g/ha ([2]; Heteranthera limosa, Flood, 31 g ai/ha, scale 0 to 100, read-out: Plant response rating, Ducksalad): 0% | pest or weed control at 62 g/ha ([3]; Cyperus difformis, Flood (flooded paddy test), 62 g ai/ha, scale 0 to 100, 0 no effect, 100 complete control, read-out: Plant response rating, Sedge, Umbrella): 0% | pest or weed control at 125 g/ha ([3]; Cyperus difformis, Flood (flooded paddy test), 125 g ai/ha, scale 0 to 100, 0 no effect, 100 complete control, read-out: Plant response rating, Sedge, Umbrella): 0% | pest or weed control at 250 g/ha [3, 10]: 0% | pest or weed control at 31 g/ha ([3]; Cyperus difformis, Flood, 31 g ai/ha, scale 0 to 100, read-out: Plant response rating, Sedge, Umbrella): 0%

CCc1c(C)c(-c2ccc(Br)cc2)nn1-c1c(O)cnn(C)c1=O [Compound 83]
Plant response rating, Barnyardgrass [1, 5]: 0 | Plant response rating, Barnyardgrass [1, 6]: 0 | Plant response rating, Barnyardgrass [1, 7]: 0 | Plant response rating, Barnyardgrass [1, 11]: 0 | Plant response rating, Ducksalad [2, 5]: 0 | Plant response rating, Ducksalad [2, 7]: 0 | Plant response rating, Ducksalad [2, 11]: 0 | Plant response rating, Sedge, Umbrella [3, 5]: 0 | Plant response rating, Sedge, Umbrella [3, 6]: 0 | Plant response rating, Sedge, Umbrella [3, 7]: 0 | Plant response rating, Sedge, Umbrella [3, 11]: 0

Cc1cn(-c2ccc(C(F)(F)F)cc2)nc1-c1c(O)cnn(C)c1=O [Compound 85, 5-hydroxy-2-methyl-4-[4-methyl-1-[4-(trifluoromethyl)phenyl]-1H-pyrazol-3-yl]-3(2H)-pyridazinone]
pest or weed control at 250 g/ha [1, 8]: 0% | pest or weed control at 62 g/ha [1, 12]: 0% | pest or weed control at 250 g/ha [2, 9]: 0% | pest or weed control at 62 g/ha [2, 13]: 0% | pest or weed control at 250 g/ha [3, 10]: 0% | pest or weed control at 62 g/ha [3, 14]: 0%

Cn1ncc(O)c(-c2nn(-c3ccc(C(F)(F)F)cc3)cc2Br)c1=O [Compound 87, 4-[4-bromo-1-[4-(trifluoromethyl)phenyl]-1H-pyrazol-3-yl]-5-hydroxy-2-methyl-3(2H)-pyridazinone]
pest or weed control at 250 g/ha [1, 8]: 0% | pest or weed control at 62 g/ha [1, 12]: 0% | pest or weed control at 250 g/ha [2, 9]: 0% | pest or weed control at 62 g/ha [2, 13]: 0% | pest or weed control at 250 g/ha [3, 10]: 0% | pest or weed control at 62 g/ha [3, 14]: 0%
